pIC50: −log10 of the molar value.
Assays:
[1] = target: T1, Potassium Channel hERG (human)- [3H] Dofetilide (Homo sapiens, UniProt Q12809); assay: in vitro
T1 construct: gene KCNH2

[2] = target: T2, 5-HT2A (h) (agonist radioligand) (Homo sapiens, UniProt P28223); assay: biochemical; design: Eurofins SafetyScreen 87 binding part: inhibition of control specific ligand binding, single concentration; conditions: read-out: Binding / ================================================= / % Inhibition of Control Specific Binding
T2 construct: gene HTR2A

PI3Kα = PI3Kα (Homo sapiens, UniProt P42336); assay: biochemical kinase assay at ATP Km apparent; design: gene PIK3CA
HER2 = target: T3, HER2 (Homo sapiens, UniProt P04626); assay: biochemical; design: Purified kinase inhibition, Z'-LYTE (HER, mTOR, DNA-PK) or Adapta (PI3K), ATP at Km apparent
T3 construct: gene ERBB2; Km ATP
T3 sequence (P04626 whole entry): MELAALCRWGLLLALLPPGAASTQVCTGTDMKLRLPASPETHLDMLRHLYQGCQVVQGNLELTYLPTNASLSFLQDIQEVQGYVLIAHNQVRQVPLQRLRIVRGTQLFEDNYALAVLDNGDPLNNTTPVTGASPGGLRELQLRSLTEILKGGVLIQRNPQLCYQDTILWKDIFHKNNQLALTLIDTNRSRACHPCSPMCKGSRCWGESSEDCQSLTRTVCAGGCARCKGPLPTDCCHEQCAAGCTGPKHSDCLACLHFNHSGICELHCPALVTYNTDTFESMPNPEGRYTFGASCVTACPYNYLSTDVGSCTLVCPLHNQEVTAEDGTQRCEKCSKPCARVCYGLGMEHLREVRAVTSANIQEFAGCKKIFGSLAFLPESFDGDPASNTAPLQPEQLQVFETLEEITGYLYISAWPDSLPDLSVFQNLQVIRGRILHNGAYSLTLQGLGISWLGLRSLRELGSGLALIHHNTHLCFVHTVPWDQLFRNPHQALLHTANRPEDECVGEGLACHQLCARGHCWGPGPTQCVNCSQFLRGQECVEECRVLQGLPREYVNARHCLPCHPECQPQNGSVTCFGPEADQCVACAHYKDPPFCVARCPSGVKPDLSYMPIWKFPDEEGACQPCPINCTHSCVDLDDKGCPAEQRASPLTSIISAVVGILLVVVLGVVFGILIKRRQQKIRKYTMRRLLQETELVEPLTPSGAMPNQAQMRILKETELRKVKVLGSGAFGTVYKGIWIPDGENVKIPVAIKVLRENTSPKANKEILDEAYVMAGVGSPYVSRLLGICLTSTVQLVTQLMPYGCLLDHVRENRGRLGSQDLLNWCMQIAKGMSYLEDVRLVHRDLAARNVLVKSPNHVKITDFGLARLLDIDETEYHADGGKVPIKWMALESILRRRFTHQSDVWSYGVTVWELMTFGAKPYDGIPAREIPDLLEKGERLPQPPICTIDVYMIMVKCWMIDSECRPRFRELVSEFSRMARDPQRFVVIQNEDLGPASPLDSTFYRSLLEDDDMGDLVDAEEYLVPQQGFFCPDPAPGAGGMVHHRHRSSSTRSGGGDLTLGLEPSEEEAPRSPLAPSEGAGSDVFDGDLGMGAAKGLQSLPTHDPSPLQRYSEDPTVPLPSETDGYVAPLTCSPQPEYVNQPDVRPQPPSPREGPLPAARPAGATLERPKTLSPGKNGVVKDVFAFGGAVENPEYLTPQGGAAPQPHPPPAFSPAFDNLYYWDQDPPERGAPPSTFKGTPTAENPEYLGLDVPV
Procedure: (§1) IC50 values were determined at a concentration of ATP corresponding to the Km apparent for that kinase.

mTOR = target: T4, mTOR (Homo sapiens, UniProt P42345); assay: biochemical; design: Purified kinase inhibition, Z'-LYTE (HER, mTOR, DNA-PK) or Adapta (PI3K), ATP at Km apparent
T4 construct: Km ATP
Procedure: as §1

HER4 = target: T5, HER4 (Homo sapiens, UniProt Q15303); assay: biochemical; design: Purified kinase inhibition, Z'-LYTE (HER, mTOR, DNA-PK) or Adapta (PI3K), ATP at Km apparent
T5 construct: gene ERBB4; Km ATP
Procedure: as §1

PI3Kβ = target: T6, PI3Kβ (Homo sapiens, UniProt P42338); assay: biochemical; design: Purified kinase inhibition, Z'-LYTE (HER, mTOR, DNA-PK) or Adapta (PI3K), ATP at Km apparent
T6 construct: gene PIK3CB; Km ATP
Procedure: as §1

PPARγ = target: T7, PPARγ (Homo sapiens, UniProt P37231); assay: X-ray cocrystal structure ([…] Å); TR-FRET competitive binding
T7 construct: gene PPARG; L232-Y505 of UniProt entry P37231-2
T7 sequence (P37231 232-505): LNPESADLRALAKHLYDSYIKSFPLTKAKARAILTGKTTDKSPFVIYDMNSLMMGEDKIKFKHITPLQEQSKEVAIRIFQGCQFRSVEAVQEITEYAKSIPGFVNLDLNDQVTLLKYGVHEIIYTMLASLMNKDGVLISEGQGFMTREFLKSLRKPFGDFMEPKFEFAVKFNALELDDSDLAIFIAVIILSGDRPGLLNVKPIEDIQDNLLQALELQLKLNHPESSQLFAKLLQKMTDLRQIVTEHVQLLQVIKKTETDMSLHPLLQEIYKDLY

[3] = target: T8, PAF (h) (agonist radioligand) (Homo sapiens, UniProt P25105); assay: biochemical; conditions: read-out: Binding / ================================================= / % Inhibition of Control Specific Binding
T8 construct: gene PTAFR

[4] = target: T9, 5-HT2C (h) (antagonist radioligand) (Homo sapiens, UniProt P28335); assay: biochemical; conditions: read-out: Binding / ================================================= / % Inhibition of Control Specific Binding
T9 construct: gene HTR2C

[5] = target: T10, MAO-A (antagonist radioligand) (Rattus norvegicus, UniProt P21396); assay: biochemical; conditions: read-out: Binding / ================================================= / % Inhibition of Control Specific Binding
T10 construct: gene Maoa

[6] = target: T11, 5-HT2B (h) (agonist radioligand) (Homo sapiens, UniProt P41595); assay: biochemical; conditions: read-out: Binding / ================================================= / % Inhibition of Control Specific Binding
T11 construct: gene HTR2B
T11 sequence (P41595 whole entry): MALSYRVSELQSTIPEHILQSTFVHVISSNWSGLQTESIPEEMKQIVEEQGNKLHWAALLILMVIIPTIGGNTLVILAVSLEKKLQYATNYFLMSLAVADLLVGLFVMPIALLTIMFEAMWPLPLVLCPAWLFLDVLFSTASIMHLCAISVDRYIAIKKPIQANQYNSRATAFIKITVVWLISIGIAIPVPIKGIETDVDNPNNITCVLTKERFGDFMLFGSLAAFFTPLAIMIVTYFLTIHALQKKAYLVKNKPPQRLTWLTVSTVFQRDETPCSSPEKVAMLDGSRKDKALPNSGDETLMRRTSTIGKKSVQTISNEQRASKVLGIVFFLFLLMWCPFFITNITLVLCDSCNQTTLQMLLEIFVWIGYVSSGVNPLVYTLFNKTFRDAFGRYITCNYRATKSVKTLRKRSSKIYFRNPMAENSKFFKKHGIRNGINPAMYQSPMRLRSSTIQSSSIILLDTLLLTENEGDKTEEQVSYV

[7] = target: T12, alpha 2B (h) (antagonist radioligand) (Homo sapiens, UniProt P18089); assay: biochemical; conditions: read-out: Binding / ================================================= / % Inhibition of Control Specific Binding
T12 construct: gene ADRA2B

[8] = target: T13, D1 (h) (antagonist radioligand) (Homo sapiens, UniProt P21728); assay: biochemical; conditions: read-out: Binding / ================================================= / % Inhibition of Control Specific Binding
T13 construct: gene DRD1

[9] = target: T14, MC1 (agonist radioligand) (Mus musculus, UniProt Q01727); assay: biochemical; conditions: read-out: Binding / ================================================= / % Inhibition of Control Specific Binding
T14 construct: gene Mc1r

Lck kinase (h) = Lck kinase (h) (Homo sapiens, UniProt P06239); design: Eurofins SafetyScreen 87 enzyme part: inhibition of control enzyme activity, single concentration; conditions: mean of 2, 10 µM, inhibitor
PKCalpha (h) = target: T15, PKCalpha (h) (Homo sapiens, UniProt P17252); design: Eurofins SafetyScreen 87 enzyme part: inhibition of control enzyme activity, single concentration; conditions: mean of 2, 10 µM, inhibitor
T15 construct: gene PRKCA

[10] = target: T16, MAO-B (h) recombinant enzyme (Homo sapiens, UniProt P27338); design: Eurofins SafetyScreen 87 enzyme part: inhibition of control enzyme activity, single concentration; conditions: mean of 2, 10 µM, inhibitor
T16 construct: gene MAOB; recombinant enzyme

IRK (h) (InsR) = IRK (h) (InsR) (Homo sapiens, UniProt P06213); design: Eurofins SafetyScreen 87 enzyme part: inhibition of control enzyme activity, single concentration; conditions: mean of 2, 10 µM, inhibitor
ACE (h) = ACE (h) (Homo sapiens, UniProt P12821); design: Eurofins SafetyScreen 87 enzyme part: inhibition of control enzyme activity, single concentration; conditions: mean of 2, 10 µM, inhibitor
ACE (h), sequence (P12821 whole entry): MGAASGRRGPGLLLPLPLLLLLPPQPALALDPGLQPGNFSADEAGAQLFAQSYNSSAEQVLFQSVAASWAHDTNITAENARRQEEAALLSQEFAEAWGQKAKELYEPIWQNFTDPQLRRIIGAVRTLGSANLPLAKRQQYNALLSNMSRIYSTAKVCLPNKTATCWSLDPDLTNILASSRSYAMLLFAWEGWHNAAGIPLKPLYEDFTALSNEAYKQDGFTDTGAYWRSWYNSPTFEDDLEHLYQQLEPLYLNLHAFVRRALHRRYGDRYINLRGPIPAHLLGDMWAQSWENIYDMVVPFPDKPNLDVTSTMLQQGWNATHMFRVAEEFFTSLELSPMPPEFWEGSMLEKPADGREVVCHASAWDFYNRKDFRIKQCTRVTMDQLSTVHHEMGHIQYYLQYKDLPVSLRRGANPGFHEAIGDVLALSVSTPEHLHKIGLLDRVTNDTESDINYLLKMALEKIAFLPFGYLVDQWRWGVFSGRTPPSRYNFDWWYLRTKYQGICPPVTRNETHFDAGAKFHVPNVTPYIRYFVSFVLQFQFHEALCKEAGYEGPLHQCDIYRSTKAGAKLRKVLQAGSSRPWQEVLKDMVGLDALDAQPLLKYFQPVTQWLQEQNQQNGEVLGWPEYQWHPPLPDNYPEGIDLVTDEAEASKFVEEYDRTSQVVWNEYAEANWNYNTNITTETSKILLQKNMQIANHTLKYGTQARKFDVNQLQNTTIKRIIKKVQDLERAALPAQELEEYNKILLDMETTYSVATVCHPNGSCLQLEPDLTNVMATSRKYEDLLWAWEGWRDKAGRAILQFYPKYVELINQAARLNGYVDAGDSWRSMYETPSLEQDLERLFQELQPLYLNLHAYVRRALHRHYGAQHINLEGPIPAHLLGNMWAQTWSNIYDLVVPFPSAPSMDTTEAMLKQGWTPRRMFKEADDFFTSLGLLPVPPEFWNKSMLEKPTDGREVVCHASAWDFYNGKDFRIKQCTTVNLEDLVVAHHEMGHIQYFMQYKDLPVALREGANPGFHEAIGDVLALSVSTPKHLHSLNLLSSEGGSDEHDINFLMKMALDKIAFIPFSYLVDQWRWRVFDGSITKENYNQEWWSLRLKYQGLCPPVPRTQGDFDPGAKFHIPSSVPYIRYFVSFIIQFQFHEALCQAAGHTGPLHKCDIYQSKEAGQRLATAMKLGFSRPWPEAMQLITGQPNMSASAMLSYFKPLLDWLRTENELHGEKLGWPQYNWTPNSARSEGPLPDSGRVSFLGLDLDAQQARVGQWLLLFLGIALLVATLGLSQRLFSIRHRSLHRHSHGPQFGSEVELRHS

PDE4D2 (h) = target: T17, PDE4D2 (h) (Homo sapiens, UniProt Q08499); design: Eurofins SafetyScreen 87 enzyme part: inhibition of control enzyme activity, single concentration; conditions: mean of 2, 10 µM, inhibitor
T17 construct: gene PDE4D; isoform PDE4D2
T17 sequence (Q08499 whole entry, canonical isoform): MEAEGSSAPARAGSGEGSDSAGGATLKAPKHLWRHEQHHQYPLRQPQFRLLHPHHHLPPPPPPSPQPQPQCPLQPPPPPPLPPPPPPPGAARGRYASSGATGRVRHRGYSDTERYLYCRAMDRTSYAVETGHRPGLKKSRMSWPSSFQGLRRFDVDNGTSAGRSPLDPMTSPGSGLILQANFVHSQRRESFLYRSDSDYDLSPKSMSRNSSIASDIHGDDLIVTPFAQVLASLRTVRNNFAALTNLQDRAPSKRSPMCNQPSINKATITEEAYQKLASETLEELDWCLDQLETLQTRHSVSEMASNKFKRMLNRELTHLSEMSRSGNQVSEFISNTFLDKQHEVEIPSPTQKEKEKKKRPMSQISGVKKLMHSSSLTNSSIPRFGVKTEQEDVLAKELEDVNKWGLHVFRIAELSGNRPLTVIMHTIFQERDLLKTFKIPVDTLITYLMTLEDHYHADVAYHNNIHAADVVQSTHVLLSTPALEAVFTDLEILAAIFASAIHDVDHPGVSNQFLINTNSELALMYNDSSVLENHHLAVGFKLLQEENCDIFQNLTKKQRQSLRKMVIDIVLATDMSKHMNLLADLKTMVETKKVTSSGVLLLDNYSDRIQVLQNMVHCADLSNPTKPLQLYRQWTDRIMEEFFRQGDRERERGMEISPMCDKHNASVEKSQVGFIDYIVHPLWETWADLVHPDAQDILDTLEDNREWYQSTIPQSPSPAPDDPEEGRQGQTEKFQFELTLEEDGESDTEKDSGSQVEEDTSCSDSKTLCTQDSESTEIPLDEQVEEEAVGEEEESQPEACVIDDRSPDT

COX1(h) = target: T18, COX1(h) (Homo sapiens, UniProt P23219); design: Eurofins SafetyScreen 87 enzyme part: inhibition of control enzyme activity, single concentration; conditions: mean of 2, 10 µM, inhibitor
T18 construct: gene PTGS1
T18 sequence (P23219 whole entry): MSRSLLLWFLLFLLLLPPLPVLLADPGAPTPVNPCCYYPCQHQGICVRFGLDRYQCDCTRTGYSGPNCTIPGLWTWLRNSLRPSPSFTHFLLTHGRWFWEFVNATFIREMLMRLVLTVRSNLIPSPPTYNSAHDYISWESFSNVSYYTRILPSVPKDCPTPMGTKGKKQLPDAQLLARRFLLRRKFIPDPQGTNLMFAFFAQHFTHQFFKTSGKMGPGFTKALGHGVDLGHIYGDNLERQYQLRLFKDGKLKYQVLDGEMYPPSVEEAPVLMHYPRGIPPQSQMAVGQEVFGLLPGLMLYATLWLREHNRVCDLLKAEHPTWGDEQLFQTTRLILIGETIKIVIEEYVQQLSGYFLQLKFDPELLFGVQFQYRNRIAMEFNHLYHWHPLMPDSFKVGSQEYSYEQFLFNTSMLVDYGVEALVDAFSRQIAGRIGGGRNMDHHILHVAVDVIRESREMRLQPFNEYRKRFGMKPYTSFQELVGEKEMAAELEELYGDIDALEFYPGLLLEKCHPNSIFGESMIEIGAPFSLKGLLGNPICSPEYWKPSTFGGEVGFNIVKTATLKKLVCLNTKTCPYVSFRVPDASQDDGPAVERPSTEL

PDE3A (h) = PDE3A (h) (Homo sapiens, UniProt Q14432); design: Eurofins SafetyScreen 87 enzyme part: inhibition of control enzyme activity, single concentration; conditions: mean of 2, 10 µM, inhibitor
cathepsin G (h) = target: T19, cathepsin G (h) (Homo sapiens, UniProt P08311); design: Eurofins SafetyScreen 87 enzyme part: inhibition of control enzyme activity, single concentration; conditions: mean of 2, 10 µM, inhibitor
T19 construct: gene CTSG

COX2(h) = target: T20, COX2(h) (Homo sapiens, UniProt P35354); design: Eurofins SafetyScreen 87 enzyme part: inhibition of control enzyme activity, single concentration; conditions: mean of 2, 10 µM, inhibitor
T20 construct: gene PTGS2

EGFR = EGFR (Homo sapiens, UniProt P00533); assay: X-ray cocrystal structure ([…] Å); purified kinase assay IC50; format: biochemical; design: G696-G1022
EGFR, sequence (P00533 696-1022): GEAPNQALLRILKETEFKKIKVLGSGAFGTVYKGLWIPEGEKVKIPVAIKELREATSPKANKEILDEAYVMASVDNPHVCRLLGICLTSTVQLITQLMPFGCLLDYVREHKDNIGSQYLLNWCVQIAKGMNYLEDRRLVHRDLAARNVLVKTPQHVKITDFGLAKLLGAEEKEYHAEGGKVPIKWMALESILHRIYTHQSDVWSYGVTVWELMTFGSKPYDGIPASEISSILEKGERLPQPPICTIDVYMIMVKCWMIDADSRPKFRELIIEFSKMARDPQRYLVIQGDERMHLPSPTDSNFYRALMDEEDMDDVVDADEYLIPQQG

C[C@@H](Nc1ncnc2ccc(-c3cnc(Cl)c(NS(C)(=O)=O)c3)cc12)c1ccccc1 [MTX-531, (R)-N-(2-chloro-5-(4-((1-phenylethyl)amino)quinazolin-6-yl)pyridin-3-yl)methane-sulfonamide]
inhibition at 10 µM [1]: 51% | inhibition at 10 µM [2]: -5% | pIC50 (PI3Kα): 8.19 | pIC50 (HER2): 5.60 | pIC50 (mTOR): 6.98 | pIC50 (HER4): < 5.00 | pIC50 (PI3Kβ): 6.63 | pIC50 (PPARγ): 5.60 | inhibition at 10 µM [3]: 1% | inhibition at 10 µM [4]: 4% | inhibition at 10 µM [5]: 8% | inhibition at 10 µM [6]: 2% | inhibition at 10 µM [7]: 2% | inhibition at 10 µM [8]: 2% | inhibition at 10 µM [9]: 2% | % inhibition of control enzyme activity (Lck kinase (h)): 4% | % inhibition of control enzyme activity (PKCalpha (h)): -3% | % inhibition of control enzyme activity [10]: 10% | % inhibition of control enzyme activity (IRK (h) (InsR)): 0% | % inhibition of control enzyme activity (ACE (h)): -2% | % inhibition of control enzyme activity (PDE4D2 (h)): 88% | % inhibition of control enzyme activity (COX1(h)): -4% | % inhibition of control enzyme activity (PDE3A (h)): 29% | % inhibition of control enzyme activity (cathepsin G (h)): 26% | % inhibition of control enzyme activity (COX2(h)): -3% | pIC50 (EGFR): 7.83

— article PMC11357990, “A first-in-class selective inhibitor of EGFR and PI3K offers a single-molecule approach to targeting adaptive resistance” (Nature Cancer, 2024)
